# Measurements taken from PubChem BioAssay AID1259407 (Chemical Carcinogenesis Research Information System (CCRIS), 2018).
# Calls of active or inactive are those of the source. No rule for the calls is given here.
# System: CCRIS mutagenicity, Ames/micronucleus/aberration tests
# Assay: CCRIS mutagenicity studies
# [1] = Test System: AMES SALMONELLA TYPHIMURIUM, Strain/Indicator: TA98, Metabolic Activation: NONE, Method: STANDARD PLATE
# [2] = Test System: AMES SALMONELLA TYPHIMURIUM, Strain/Indicator: TA100, Metabolic Activation: NONE, Method: STANDARD PLATE
# [3] = Test System: AMES SALMONELLA TYPHIMURIUM, Strain/Indicator: TA1535, Metabolic Activation: NONE, Method: STANDARD PLATE
# [4] = Test System: AMES SALMONELLA TYPHIMURIUM, Strain/Indicator: TA1537, Metabolic Activation: NONE, Method: STANDARD PLATE
compound,measurement,setting,value
CCC1CCC(CCC(=O)[O-])C1.CCC1CCC(CCC(=O)[O-])CC1.[Cu+2] (centres undefined),mutagenic call,"End Point: In vitro chromosomal aberrations, Test System: Chinese hamster ovary (CHO) cells, Metabolic Activation: None",inactive; negative
same,mutagenic call,"End Point: In vitro chromosomal aberrations, Test System: Chinese hamster ovary (CHO) cells, Metabolic Activation: Rat, Liver, S-9, Aroclor",inactive; negative
same,mutagenic call,"Test System: AMES SALMONELLA TYPHIMURIUM, Strain/Indicator: TA98, Metabolic Activation: HAMSTER, LIVER, S-9, AROCLOR 1254 (10%), Method: STANDARD PLATE",inactive; negative
same,mutagenic call,[1],inactive; negative
same,mutagenic call,"Test System: AMES SALMONELLA TYPHIMURIUM, Strain/Indicator: TA98, Metabolic Activation: RAT, LIVER, S-9, AROCLOR 1254 (10%), Method: STANDARD PLATE",inactive; negative
same,mutagenic call,"Test System: AMES SALMONELLA TYPHIMURIUM, Strain/Indicator: TA100, Metabolic Activation: HAMSTER, LIVER, S-9, AROCLOR 1254 (10%), Method: STANDARD PLATE",inactive; negative
same,mutagenic call,[2],inactive; negative
same,mutagenic call,"Test System: AMES SALMONELLA TYPHIMURIUM, Strain/Indicator: TA100, Metabolic Activation: RAT, LIVER, S-9, AROCLOR 1254 (10%), Method: STANDARD PLATE",inactive; negative
same,mutagenic call,"Test System: AMES SALMONELLA TYPHIMURIUM, Strain/Indicator: TA1535, Metabolic Activation: HAMSTER, LIVER, S-9, AROCLOR 1254 (10%), Method: STANDARD PLATE",inactive; negative
same,mutagenic call,[3],inactive; negative
same,mutagenic call,"Test System: AMES SALMONELLA TYPHIMURIUM, Strain/Indicator: TA1535, Metabolic Activation: RAT, LIVER, S-9, AROCLOR 1254 (10%), Method: STANDARD PLATE",inactive; negative
same,mutagenic call,"Test System: AMES SALMONELLA TYPHIMURIUM, Strain/Indicator: TA1537, Metabolic Activation: HAMSTER, LIVER, S-9, AROCLOR 1254 (10%), Method: STANDARD PLATE",inactive; negative
same,mutagenic call,[4],inactive; negative
same,mutagenic call,"Test System: AMES SALMONELLA TYPHIMURIUM, Strain/Indicator: TA1537, Metabolic Activation: RAT, LIVER, S-9, AROCLOR 1254 (10%), Method: STANDARD PLATE",inactive; negative
same,mutagenic call,"Test System: AMES SALMONELLA TYPHIMURIUM, Strain/Indicator: TA1538, Metabolic Activation: HAMSTER, LIVER, S-9, AROCLOR 1254 (10%), Method: STANDARD PLATE",inactive; negative
same,mutagenic call,"Test System: AMES SALMONELLA TYPHIMURIUM, Strain/Indicator: TA1538, Metabolic Activation: NONE, Method: STANDARD PLATE",inactive; negative
same,mutagenic call,"Test System: AMES SALMONELLA TYPHIMURIUM, Strain/Indicator: TA1538, Metabolic Activation: RAT, LIVER, S-9, AROCLOR 1254 (10%), Method: STANDARD PLATE",inactive; negative
same,mutagenic call,"Test System: MOUSE LYMPHOMA, Strain/Indicator: L5178Y (TK+/TK-), Metabolic Activation: RAT, LIVER, S-9, AROCLOR 1254, Method: SUSPENSION/PLATE",active; positive. reevaluation of results: positive
same,mutagenic call,"Test System: Mouse lymphoma, Strain/Indicator: L5178Y TK+/-, Metabolic Activation: Mammalian, liver, S-9",active; positive
same,mutagenic call,"Test System: Mouse lymphoma, Strain/Indicator: L5178Y TK+/-, Metabolic Activation: None",inactive; negative
Cc1cc([N+](=O)[O-])cc2ccccc12,mutagenic call,"Test System: AMES SALMONELLA TYPHIMURIUM, Strain/Indicator: TA98, Metabolic Activation: NONE, Method: PREINCUBATION",active; positive
O=C(O)c1cccc2cccnc12,mutagenic call,[1],inactive; negative
same,mutagenic call,"Test System: AMES SALMONELLA TYPHIMURIUM, Strain/Indicator: TA98, Metabolic Activation: RAT, LIVER, S-9, AROCLOR 1254, Method: STANDARD PLATE",inactive; negative
same,mutagenic call,[2],inactive; negative
same,mutagenic call,"Test System: AMES SALMONELLA TYPHIMURIUM, Strain/Indicator: TA100, Metabolic Activation: RAT, LIVER, S-9, AROCLOR 1254, Method: STANDARD PLATE",inactive; negative
same,mutagenic call,[3],inactive; negative
same,mutagenic call,"Test System: AMES SALMONELLA TYPHIMURIUM, Strain/Indicator: TA1535, Metabolic Activation: RAT, LIVER, S-9, AROCLOR 1254, Method: STANDARD PLATE",inactive; negative
same,mutagenic call,[4],inactive; negative
same,mutagenic call,"Test System: AMES SALMONELLA TYPHIMURIUM, Strain/Indicator: TA1537, Metabolic Activation: RAT, LIVER, S-9, AROCLOR 1254, Method: STANDARD PLATE",inactive; negative
c1ccc(CCC2CO2)cc1 (centres undefined),mutagenic call,"Test System: AMES SALMONELLA TYPHIMURIUM, Strain/Indicator: TA100, Metabolic Activation: NONE, Method: PREINCUBATION",active; positive
same,mutagenic call,[2],active; positive
same,mutagenic call,"Test System: AMES SALMONELLA TYPHIMURIUM, Strain/Indicator: TA1535, Metabolic Activation: NONE, Method: PREINCUBATION",active; positive
same,mutagenic call,[3],active; positive
NC(=O)OCc1ccccc1,mutagenic call,"Test System: E. COLI, Strain/Indicator: WP2 UVRA, Metabolic Activation: NONE, Method: FLUCTUATION TEST",inactive; negative
CC(C)CCC[C@@H](C)[C@H]1CC[C@H]2[C@@H]3C=CC4(OO)C[C@@H](O)CC[C@]4(C)[C@H]3CC[C@]12C (some centres undefined),mutagenic call,"Test System: AMES SALMONELLA TYPHIMURIUM, Strain/Indicator: TA1537, Metabolic Activation: NONE, Method: PREINCUBATION",active; positive
CCOP(=S)(OCC)Oc1ccc(S(C)=O)cc1 (centres undefined),mutagenic call,"End Point: In vivo micronucleus, Species: Mouse, Strain/Sex: NMRI/Male and female",inactive; negative
O=[N+]([O-])c1cc2[nH]c3ccc4ccccc4c3c2c2ccccc12,mutagenic call,[1],inactive; negative
same,mutagenic call,"Test System: AMES SALMONELLA TYPHIMURIUM, Strain/Indicator: TA98, Metabolic Activation: RAT, LIVER, S-9, 3-METHYLCHOLANTHRENE, Method: STANDARD PLATE",active; positive
same,mutagenic call,[2],inactive; negative
same,mutagenic call,"Test System: AMES SALMONELLA TYPHIMURIUM, Strain/Indicator: TA100, Metabolic Activation: RAT, LIVER, S-9, 3-METHYLCHOLANTHRENE, Method: STANDARD PLATE",inactive; negative
O[C@@H]1[C@@H]2O[C@@H]2c2c(cc3ccc4cccc5c6ccccc6c2c3c45)[C@H]1O,mutagenic call,"Test System: AMES SALMONELLA TYPHIMURIUM, Strain/Indicator: TA97, Metabolic Activation: NONE, Method: PREINCUBATION (EXPOSURE IN MEDIUM WITH KCL)",active; positive
same,mutagenic call,"Test System: AMES SALMONELLA TYPHIMURIUM, Strain/Indicator: TA97, Metabolic Activation: NONE, Method: PREINCUBATION (EXPOSURE IN MEDIUM WITHOUT KCL)",active; positive
same,mutagenic call,"Test System: AMES SALMONELLA TYPHIMURIUM, Strain/Indicator: TA98, Metabolic Activation: NONE, Method: PREINCUBATION (EXPOSURE IN MEDIUM WITH KCL)",active; positive
same,mutagenic call,"Test System: AMES SALMONELLA TYPHIMURIUM, Strain/Indicator: TA98, Metabolic Activation: NONE, Method: PREINCUBATION (EXPOSURE IN MEDIUM WITHOUT KCL)",active; positive
same,mutagenic call,"Test System: AMES SALMONELLA TYPHIMURIUM, Strain/Indicator: TA100, Metabolic Activation: NONE, Method: PREINCUBATION (EXPOSURE IN MEDIUM WITH KCL)",active; positive
same,mutagenic call,"Test System: AMES SALMONELLA TYPHIMURIUM, Strain/Indicator: TA100, Metabolic Activation: NONE, Method: PREINCUBATION (EXPOSURE IN MEDIUM WITHOUT KCL)",active; positive
same,mutagenic call,"Test System: AMES SALMONELLA TYPHIMURIUM, Strain/Indicator: TA104, Metabolic Activation: NONE, Method: PREINCUBATION (EXPOSURE IN MEDIUM WITH KCL)",active; positive
same,mutagenic call,"Test System: AMES SALMONELLA TYPHIMURIUM, Strain/Indicator: TA104, Metabolic Activation: NONE, Method: PREINCUBATION (EXPOSURE IN MEDIUM WITHOUT KCL)",active; positive
same,mutagenic call,"Test System: CHINESE HAMSTER V-79, Strain/Indicator: V-79/6-THIOGUANINE, Metabolic Activation: NONE",active; positive
